Source: the NIST ThermoML archive (doi:10.1021/je8001128)

Key:
[1] = 298.15 K; 101 kPa; Liquid
[2] = wn = mass fraction of the nth substance listed; settings: 298.15 K, 101 kPa, Liquid

COC(C)=O [methyl ethanoate]
Settings | viscosity [mPa·s]
[1] | 0.4

COC(C)=O [methyl ethanoate] + CCCCn1cc[n+](C)c1.F[B-](F)(F)F
[2]
Settings | mass density [kg/m3] | viscosity [mPa·s]
w2 = 0 | 915.97 | 0.4
w2 = 0.1386 | 964.5 | 0.6
w2 = 0.254 | 996.04 | 0.9
w2 = 0.4326 | 1045.98 | 2
w2 = 0.5703 | 1084.58 | 3.6
w2 = 0.622 | 1098.9 | 4.7
w2 = 0.6699 | 1112.24 | 6.2
w2 = 0.7149 | 1124.8 | 8.2
w2 = 0.7526 | 1136.01 | 10.2
w2 = 0.7875 | 1144.94 | 13.1
w2 = 0.8204 | 1153.95 | 16.3
w2 = 0.8766 | 1169.55 | 25.8
w2 = 0.9243 | 1182.88 | 40.8
w2 = 0.9648 | 1197.7 | 63.7

COC=O [methyl methanoate]
[1]
Settings | mass density [kg/m3] | viscosity [mPa·s]
– | 964.78 | 0.3

COC=O [methyl methanoate] + CCCCn1cc[n+](C)c1.F[B-](F)(F)F
[2]
Settings | mass density [kg/m3] | viscosity [mPa·s]
w2 = 0 | 964.78 | 0.3
w2 = 0.1653 | 1011.72 | 0.5
w2 = 0.2974 | 1045.55 | 0.9
w2 = 0.4895 | 1091.4 | 1.9
w2 = 0.6165 | 1121.47 | 3.5
w2 = 0.6592 | 1131.2 | 4.4
w2 = 0.7145 | 1143.64 | 6.3
w2 = 0.7547 | 1152.73 | 8.2
w2 = 0.7899 | 1160.43 | 10.6
w2 = 0.8204 | 1167.19 | 13.7
w2 = 0.8492 | 1173.37 | 17.12
w2 = 0.8977 | 1182.34 | 28.3
w2 = 0.9376 | 1192.78 | 44.2
w2 = 0.9711 | 1202.31 | 68.4
